As a reminder, the melting point is the temperature of the solid-liquid transition.

The molecule `Cc1[nH]c(C=C2C(=O)NN=C2OC(C)C)c(C)c1CN1CCOCC1` [Example 85, 4-[(3,5-Dimethyl-4-morpholinomethylpyrrol-2-yl)methylene]-3-isopropoxy-2-pyrazolin-5-one] gave a melting point of 162 to 164 °C.
Under `Cc1[nH]c(C=C2C(=O)NN=C2OC(C)C)c(C)c1CN(C)C` [Example 86, 4-[(3,5-Dimethyl-4-dimethylaminomethylpyrrol-2-yl)methylene]-3-isopropoxy-2-pyrazolin-5-one] stands 173 to 175 °C; under `CC(=O)c1c(C)[nH]c(C=C2C(=O)NN=C2OC(C)C)c1C` [Example 87, 4-[(4-Acetyl-3,5-dimethylpyrrol-2-yl)methylene]-3-isopropoxy-2-pyrazolin-5-one], 209 to 210 °C; under `Cc1[nH]c(C=C2C(=O)NN=C2OC(C)C)c(C)c1C(=O)OCCN(C)C` [Example 88, 4-{[4-(2-Dimethylaminoethoxycarbonyl)-3,5-dimethylpyrrol-2-yl]methylene}-3-isopropoxy-2-pyrazolin-5-one], 165 to 167 °C.
The molecule `CCOC(=O)c1ccc(C=C2C(=O)NN=C2OC(C)C)[nH]1` [Example 90, 4-[(5-Ethoxycarbonylpyrrol-2-yl)methylene]-3-isopropoxy-2-pyrazolin-5-one] displayed a melting point of 205 to 207 °C.
With `CC(C)OC1=NNC(=O)C1=Cc1ccc(C(=O)O)[nH]1` [Example 91, 4-[(5-Carboxypyrrol-2-yl)methylene]-3-isopropoxy-2-pyrazolin-5-one] the figure was 235 to 237 °C; with `O=C(CC1=NNC(=O)C1=Cc1ccc[nH]1)Nc1ccc(Cl)cc1` [Example 92, 3-(4-Chlorophenylaminocarbonylmethyl)-4-[(pyrrol-2-yl)methylene]-2-pyrazolin-5-one], 240 to 242 °C.
For the molecule `O=C1NN=C(C2CC2)C1=Cc1ccc(-c2ccccc2)[nH]1` [Example 93, 3-Cyclopropyl-4-[(5-phenylpyrrol-2-yl)methylene]-2-pyrazolin-5-one], the melting point lay in the range of 208 to 210 °C.
As to `CCc1c(C)[nH]c(C=C2C(=O)NN=C2C2CCOC2)c1C` (stereo not shown) [Example 94, 4-[(3,5-Dimethyl-4-ethylpyrrol-2-yl)methylene]-3-(tetrahydrofuran-3-yl)-2-pyrazolin-5-one], the melting point lay in the range of 163 to 165 °C.
Under `Cc1[nH]c(C=C2C(=O)NN=C2C2CC2)c(C)c1C(=O)O` [Example 95, 4-[(4-Carboxy-3,5-dimethylpyrrol-2-yl)methylene]-3-cyclopropyl-2-pyrazolin-5-one] stands 312 °C (dec.); under `CCOC(=O)c1c(C)[nH]c(C=C2C(=O)NN=C2c2cccnc2)c1C` [Example 96, 4-[(3,5-dimethyl-4-ethoxycarbonylpyrrol-2-yl)methylene]-3-(3-pyridyl)-2-pyrazolin-5-one], 247 to 249 °C; under `Cc1[nH]c(C=C2C(=O)NN=C2C2CC2)c(C)c1CN1CCOCC1` [Example 97, 3-Cyclopropyl-4-[(3,5-dimethyl-4-morpholinomethylpyrrol-2-yl)methylene]-2-pyrazolin-5-one], 175 to 177 °C.
For `Cc1c[nH]c(C=C2C(=O)NN=C2c2cnccn2)c1C` [Example 98, 4-[(3,4-dimethylpyrrol-2-yl)methylene]-3-pyrazinyl-2-pyrazolin-5-one], the melting point fell in the range of 245 to 250 °C.
With `Cc1c(CCC(=O)O)c[nH]c1C=C1C(=O)NN=C1C1CC1` [Example 99, 4-{[4-(2-Carboxyethyl)-3-methylpyrrol-2-yl]methylene}-3-cyclopropyl-2-pyrazolin-5-one] the figure was 290 °C (dec.).
Consider `Cc1[nH]c(C=C2C(=O)NN=C2C2CC2)c(C)c1CN(C)C` [Example 100, 3-Cyclopropyl-4-[(3,5-dimethyl-4-dimethylaminomethylpyrrol-2-yl)methylene]-2-pyrazolin-5-one], for which the melting point lay in the range of 176 to 178 °C.
The molecule `COC(=O)CCC1=NNC(=O)C1=Cc1ccc[nH]1` [Example 103, 3-(2-Methoxycarbonylethyl)-4-[(pyrrol-2-yl)methylene]-2-pyrazolin-5-one] returned a melting point of 134 to 136 °C.
With `CCOC(=O)C1=NNC(=O)C1=Cc1ccc[nH]1` [Example 104, 3-Ethoxycarbonyl-4-[(pyrrol-2-yl)methylene]-2-pyrazolin-5-one] the figure was 177 to 179 °C; with `CC(C)C1=NNC(=O)C1=Cc1ccc[nH]1` [Example 105, 3-Isopropyl-4-[(pyrrol-2-yl)methylene]-2-pyrazolin-5-one], 120 to 122 °C.
With `O=C1NN=C(C2CCCCC2)C1=Cc1ccc[nH]1` [Example 107, 3-Cyclohexyl-4-[(pyrrol-2-yl)methylene]-2-pyrazolin-5-one] the figure was 176 to 178 °C; with `O=C1NN=C(C2CC2)C1=Cc1ccc(CN2CCOCC2)[nH]1` [Example 109, 3-Cyclopropyl-4-[(5-morpholinomethylpyrrol-2-yl)methylene]-2-pyrazolin-5-one], 184 to 186 °C.
Turning to `O=C1NN=C(C2CC2)C1=Cc1ccc(C(=O)O)[nH]1` [Example 110, 4-[(5-Carboxypyrrol-2-yl)methylene]-3-cyclopropyl-2-pyrazolin-5-one], the melting point was 220 °C (dec.).
Under `CCOC1=NNC(=O)C1=Cc1cc(Cl)c[nH]1` [Example 111, 4-[(4-Chloropyrrol-2-yl)methylene]-3-ethoxy-2-pyrazolin-5-one] stands 237 to 239 °C; under `CCOC1=NNC(=O)C1=Cc1cc(Br)c[nH]1` [Example 112, 4-[(4-Bromopyrrol-2-yl)methylene]-3-ethoxy-2-pyrazolin-5-one], 242 to 244 °C; under `CCOC1=NNC(=O)C1=Cc1ccc(Cl)[nH]1` [Example 113, 4-[(5-Chloropyrrol-2-yl)methylene]-3-ethoxy-2-pyrazolin-5-one], 170 to 172 °C.
On to `O=C1NN=C(C2CC2)C1=Cc1cc(Cl)c[nH]1` [Example 114, 4[(4-Chloropyrrol-2-yl)methylene]-3-cyclopropyl-2-pyrazolin-5-one], for which the melting point is 220 °C (dec.).
Under `O=C1NN=C(C2CC2)C1=Cc1cc(Br)c[nH]1` [Example 115, 4-[(4-Bromopyrrol-2-yl)methylene]-3-cyclopropyl-2-pyrazolin-5-one] stands 210 °C (dec.); under `Cc1[nH]c(C=C2C(=O)NN=C2c2cnccn2)c(C)c1C(=O)O` [Example 118, 4-[(4-Carboxy-3,5-dimethylpyrrol-2-yl)methylene]-3-pyrazinyl-2-pyrazolin-5-one], 225 to 228 °C; under `Cc1[nH]c(C=C2C(=O)NN=C2C2CC2)c(C)c1C(=O)OCCN(C)C` [Example 119, 3-Cyclopropyl-4-{[3,5-dimethyl-4-(2-dimethylaminoethyloxycarbonyl)pyrrol-2-yl]methylene}-2-pyrazolin-5-one], 172 to 174 °C.
Under `Cc1[nH]c(C=C2C(=O)NN=C2c2cnccn2)c(C)c1C(=O)OCCN(C)C` [Example 120, 4-{[3,5-Dimethyl-4(2-dimethylaminoethyloxycarbonyl)pyrrol-2-yl]methylene}-3-pyrazinyl-2-pyrazolin-5-one] stands 223 to 225 °C; under `Cc1[nH]c(C=C2C(=O)NN=C2c2cnccn2)c(C)c1CN(C)C` [Example 121, 4-[(3,5-Dimethyl-4-dimethylaminomethylpyrrol-2-yl)methylene]-3-pyrazinyl-2-pyrazolin-5-one], 220 to 222 °C.
With `Cc1[nH]c(C=C2C(=O)NN=C2c2cnccn2)c(C)c1CN(C)C.O=C(O)/C=C\C(=O)O` [Example 122, 4-[(3,5-Dimethyl-4-dimethylaminomethylpyrrol-2-yl)methylene]-3-pyrazinyl-2-pyrazolin-5-one maleate] the figure was 206 to 210 °C.
In the case of `Cc1cc(C)c(C=C2C(=O)NN=C2c2ccccn2)[nH]1` [Example 124, 4-[(3,5-Dimethylpyrrol-2-yl)methylene]-3-(2-pyridyl)-2-pyrazolin-5-one], the melting point was in the range of 228 to 230 °C.
In the case of `CCc1c(C)[nH]c(C=C2C(=O)NN=C2c2ccccn2)c1C` [Example 125, 4-[(3,5-Dimethyl-4-ethylpyrrol-2-yl)methylene]-3-(2-pyridyl)-2-pyrazolin-5-one], the melting point fell in the range of 184 to 186 °C.
Under `Cc1cc(C)c(C=C2C(=O)NN=C2c2ccco2)[nH]1` [Example 127, 4-[(3,5-dimethylpyrrol-2-yl)methylene]-3-(2-furyl)-2-pyrazolin-5-one] stands 235 to 237 °C.
The molecule `Cc1[nH]c(C=C2C(=O)NN=C2c2cnccn2)c(C)c1CN1CCOCC1` [Example 128, 4-[(3,5-dimethyl-4-morpholinomethylpyrrol-2-yl)methylene]-3-pyrazinyl-2-pyrazolin-5-one] came in with a melting point of 274 to 277 °C.
With `Cc1cc(C)c(C=C2C(=O)NN=C2c2cccs2)[nH]1` [Example 129, 4-[(3,5-dimethylpyrrol-2-yl)methylene]-3-(2-thienyl)-2-pyrazolin-5-one] the figure was 235 to 237 °C; with `CCOC(=O)c1c[nH]c(C=C2C(=O)NN=C2C2CC2)c1` [Example 130, 3-Cyclopropyl-4-[(4-ethoxycarbonylpyrrol-2-yl)methylene]-2-pyrazolin-5-one], 192 to 194 °C.
`Cc1[nH]c(C=C2C(=O)NN=C2C2CC2)c(C)c1CNC(=O)C(F)(F)F` [Example 131, 3-Cyclopropyl-4-[(3,5-dimethyl-4-trifluoroacetamidomethylpyrrol-2-yl)methylene]-2-pyrazolin-5-one] gave a melting point of 278 to 280 °C.
In turn, `Cc1[nH]c(C=C2C(=O)NN=C2C2CC2)c(C)c1CN` [Example 132, 3-Cyclopropyl-4-[(4-aminomethyl-3,5-dimethylpyrrol-2-yl)methylene]-2-pyrazolin-5-one] showed a melting point of 217 to 219 °C.
With `Cc1cc(C)c(C=C2C(=O)NN=C2c2nc3ccccc3s2)[nH]1` [Example 133, 3-(Benzothiazol-2-yl)-4-[(3,5-dimethylpyrrol-2-yl)methylene]-2-pyrazolin-5-one] the figure was 295 to 297 °C.

The values above are taken from patent US7060822B1, “2-pyrazolin-5-ones” (Abbott GmbH & Co. KG, priority 1999, dated 2006).
